{"source": "patent US20170349879A1", "about": "“METHOD FOR CULTURING NORMAL CELLS AND ODONTOMA CELLS CONTAINED IN ORAL TISSUE” (CHIBA UNIVERSITY, priority 2014, published 2017)", "key": {"[1]": {"system": "vascular endothelial cells", "experiment": "Cell culture of vascular endothelial cells using a Rho kinase inhibitor (cell morphology)", "assay_type": "cell-based, human", "details": "inhibitor-containing medium (10 μM, EGM-2MV); passage 8 with inhibitor vs passage 0 without; FIG. 15", "procedure": "Vascular Endothelial Cells (i) Patient-derived cells for use as a source material were taken in a required amount as described above. (ii) The cells were washed three times with phosphate-buffered physiological saline (PBS) (supplemented with 10 units/ml of penicillin and 100 μg/ml of streptomycin: Sigma-Aldrich). (iii) The cells were cut into small pieces with sterilized iris scissors and a surgical knife (No. 11). (iv) The cells were added to collagenase (032-10534: Wako) and shaken at 37° C. for 60 minutes. (v) The cells were diluted with an equal volume of fetal bovine serum (Nichirei Bioscience Inc., Japan) and centrifuged (at 1000 rpm for 10 minutes), and then centrifuged (at 1000 rpm for 5 minutes) three times with PBS, followed by addition of MACS buffer and centrifugation (at 1000 rpm for 5 minutes). (vi) Magnetic beads (Dynabeads CD31 Endotherial cell, 11155D: Invitrogen) were used to separate the cells. (vii) The cells were mixed with EGM-2MV (Lonza) (supplemented with 20% fetal bovine serum, 10 units/ml of penicillin, 100 μg/ml of streptomycin, and 10 μM of the Rock kinase inhibitor) and then seeded into fibronectin-coated cell culture dishes (IWAKI). (viii) The cells were washed with PBS once every three days to replace the above medium. (ix) The cultured cells were subcultured at 80% confluency. […]"}, "amylase": {"system": "amylase", "experiment": "Protein expression analysis of amylase by immunocytological fluorescent staining", "assay_type": "cell-based, human", "details": "salivary gland cells repeatedly subcultured in Rock inhibitor-containing medium; FIG. 3", "procedure": "(i) Salivary gland cells cultured on glass slides were fixed by being treated for 10 minutes with 4% paraformaldehyde (WaKo). (ii) The fixed cells were washed three times with Tris-buffered saline (TBS: Sigma-Aldrich). (iii) The fixed cells were permeated with 0.5% Triton X-100 (WaKo) for 15 minutes. (iv) The fixed cells were reacted for 30 minutes with TBS containing 1% bovine serum albumin (Sigma-Aldrich). (v) The fixed cells were washed three times with TBS. (vi) A primary antibody (anti-goat amylase (Santa Cruz)) was mixed with TBS and reacted at a concentration of 1:200 at 4° C. for 16 hours. (vii) The cells were washed three times with TBS. (viii) Anti-goat Alexa Floor 647 (Millipore) was mixed with phosphate-buffered physiological saline and reacted at a concentration of 1:200 at room temperature for 1 hour. (ix) The cells were washed three times with TBS. (x) The cells were mounted with DAPI-containing mounting medium (DaKo). (xi) The cells were observed under a confocal microscope (FV10i-LIV: OLYMPUS)."}, "B6C3F1/Crlj mice": {"system": "B6C3F1/Crlj mice", "experiment": "Toxicity in mice administered intraperitoneally with a Rock inhibitor", "assay_type": "in vivo", "details": "10 mg/kg/day intraperitoneal, once a day for 14 days", "procedure": "4.3 Histopathological Analysis of Organ Toxicity in Mice Administered Intraperitoneally with a Rock Inhibitor Animal used: B6C3F1/Crlj mice (CLEA Japan, Inc., Japan) n=12 for each group (male: 6, female: 6), n=4 for the control group (male: 2, female: 2) Drug: Y-27632 Dose: 10 mg/kg/day (0.25 mg/day for 25 g body weight) Y-27632 was dissolved in PBS and intraperitoneally administered. The control group was administered with an equal volume of PBS. Administration period: administered once a day for successive 14 days. Half of the mice in each group were monitored for follow-up purposes for 14 days after administration. (i) Groups receiving a Rock inhibitor (RI+): n=12 (male: 6, female: 6) A. Group subjected to blood collection and autopsy at the time of the completion of administration (at 14 days after the initiation of administration). n=6 (male: 3, female: 3) B. Group subjected to blood collection and autopsy at the time of the completion of administration (at 28 days after the initiation of administration). n=6 (male: 3, female: 3) The mice were visually observed for their general condition once a day. The mice were measured daily for their body weight and feed/water intake. Hematological tests were performed on each mouse before administration and after administration (on the 14th day). * In each group, 3 male and 3 female mice were subjected to blood collection and autopsy on the 14th day of administration. […] These mice were subjected to blood examination and autopsy on the 28th day after the initiation of administration. Blood counting: red blood cell count, white blood cell count, platelet count, hematocrit value, red blood cell fraction. Biochemical parameters: TP, ALB, CRE, Na, K, GOT, GPT, T-CHO, Glu On the […], 3 male and 3 female mice from each group were subjected to autopsy. The remaining 3 male and 3 female mice were subjected to autopsy on the 28th day after being monitored for follow-up purposes. […]"}, "[2]": {"system": "oral mucosal epithelial cells", "experiment": "Cell culture of oral mucosal epithelial cells using a Rho kinase inhibitor (cell morphology)", "assay_type": "cell-based, human", "details": "inhibitor-containing medium (10 μM); passage 5 with inhibitor vs passage 0 without; FIG. 12", "procedure": "Odontoma cells, oral mucosal epithelial cells, fibroblasts, and cancer-associated fibroblasts (CAFs) (i) Patient-derived cells for use as a source material were taken in a required amount as described above. (ii) The cells were washed three times with phosphate-buffered physiological saline (PBS) (supplemented with 10 units/ml of penicillin and 100 μg/ml of streptomycin: Sigma-Aldrich). (iii) The cells were cut into small pieces with sterilized iris scissors and a surgical knife (No. 11). (iv) After addition of trypsin (TrypLE Select Enzyme, Gibco, Code No. A12177-01), the cells were shaken at 37° C. for 30 minutes. (v) The cells were mixed with Dulbecco's modified Eagle medium (DMEM: Sigma-Aldrich) (supplemented with 10% fetal bovine serum: Nichirei Bioscience Inc., Japan, 10 units/ml of penicillin and 100 μg/ml of streptomycin), and centrifugation (at 1000 rpm for 5 minutes) was repeated three times. (vi) The cells were mixed with DMEM (supplemented with 10% fetal bovine serum, 10 units/ml of penicillin, 100 μg/ml of streptomycin, 10 μM of the Rock kinase inhibitor and 0.3 μM of L-ascorbic acid 2-phosphate: Sigma-Aldrich) (DMEM+) and then seeded into collagen type I-coated cell culture dishes (IWAKI). (vii) The cells were washed with PBS once every three days to replace the above medium. (viii) The cultured cells were subcultured at 80% confluency. […]"}}, "data": [{"smiles": "CC(N)[C@H]1CC[C@H](C(=O)Nc2ccncc2)CC1", "note": "(stereo partly drawn) [Rock inhibitor, (R)-(+)-trans-N-(4-pyridyl)-4-(1-aminoethyl)-cyclohexanecarboxamide]", "values": [{"measurement": "cell morphology of vascular endothelial cells on repeated subculture", "setting": "[1]", "value": "maintain their cell morphology even when repeatedly subcultured"}, {"measurement": "protein expression of amylase", "setting": "amylase", "value": "significantly high"}, {"measurement": "hematological tests", "setting": "B6C3F1/Crlj mice; FIG. 7", "value": "No abnormal findings were observed"}, {"measurement": "time course of body weight changes", "setting": "B6C3F1/Crlj mice; FIG. 8", "value": "No abnormal findings were observed"}, {"measurement": "histopathological examination of organs", "setting": "B6C3F1/Crlj mice; HE staining, FIG. 9", "value": "No abnormal findings were observed"}, {"measurement": "cell morphology of oral mucosal epithelial cells on repeated subculture", "setting": "[2]", "value": "maintain their cell morphology even when repeatedly subcultured"}]}]}
